Common to all, as to assay type: cell-based, human
One experiment relates to type IV collagen (COLIV). Kind of experiment: Semi-quantitative determination of type IV collagen by immunofluorescence (confocal microscopy). As to conditions: 120 H; duplicate (one row per replicate); Inositol 0.5%, Inositol + Arginine 0.25% + 0.25%.
Another experiment relates to Cytokeratin 6 (CK6). Kind of experiment: Immunohistochemical evaluation of cytokeratin 6 in proto-follicle microtissues. The conditions noted are these: Inositol 0.5%, Inositol 0.25% + L-arginine 0.25%, Cyclosporin A 10 ng/mL; result in words. The protocol: (§1) The reconstituted proto-follicle was obtained by using fibroblast cells and human keratinocytes using the Gravity^PLUS™ method, a system developed by InSphero (InSphero AG, Zurich, Switzerland), which allows the formation of spheroids or micro-tissues of homogeneous size using the hanging drops technology. The micro-tissues were transferred to Gravity^TRAP plates for treatment and control of culture conditions: 37 °C incubator, 5% CO2, suitably saturated atmosphere of the culture medium.
(§2) In order to assess the biological effect of each of the above compositions on the micro-tissue cultures in question, the following parameters were measured: • Quantification of ATP, as a marker of cell viability. • Morphological evaluation during culture of the proto-follicle, by staining with hematoxylin-eosin (H&E). • Immunohistochemical evaluation of Cytokeratin 6 (CK6), wherein CK6 is a keratin type II present in the skin and the hair follicle, which has an important role in the formation of the intermediate filament and is involved in tissue remodeling during stress phenomena.
(§3) In order to observe the short- and long-term effect of the compositions mentioned above, the evaluation of the above parameters was made at 24H (T2) and 120H (T6) after the beginning of therapy.

The subject of experiment [1] is co-spheroidal culture DPF-ORSK. Kind of experiment: Morphological evaluation of proto-follicle microtissues by H&E staining. The conditions noted are these: Inositol 0.5%, Inositol 0.25% + L-arginine 0.25%. The protocol: as §1, §2, §3

Molecules are shown by their SMILES. “And” between values parts separate entries of the source, which are not always exact repeats. Equal entries are not always repeated.

This is an account of results in EP3538062B1, “ASSOCIATION CONSISTING OF INOSITOL AND ARGININE FOR MAINTAINING HOMEOSTASIS OF THE HAIR AND SCALP” (Unifarco S.p.A., priority 2016, dated 2018).

Consider `O[C@H]1[C@H](O)[C@@H](O)[C@H](O)[C@@H](O)[C@H]1O` [Inositol], for which, in the experiment with type IV collagen (COLIV), the “semi-quantitative analysis of COLIV” value is 69 and 94. In addition, the “follicular CK6 expression / proto-hair structure and coloring” value with Cytokeratin 6 (CK6) is recorded as “not different from those shown by the samples treated with Cyclosporin A”. In addition, the “morphological qualitative evaluation of micro-tissues (H&E)” value in experiment [1] (T2 (24H)) is recorded as “more compact lamellar structure”; in experiment [1] (T6 (120H), Cyclosporin A 10 ng/mL), “more compact lamellar structure”.
